Laboratory results from paper PMC7646200 (Xenobiotica; the fate of foreign compounds in biological …, 2020).

What was measured:
rat liver cytosol = test: Sulfonation of 7-hydroxycoumarin derivatives by rat liver cytosol; conditions: rat liver cytosol; value (95 % confidence interval)
in vitro [1] = conditions: female, sheep, pH 7.4
pig liver cytosol = test: Sulfonation of 7-hydroxycoumarin derivatives by pig liver cytosol; conditions: pig liver cytosol; value (95 % confidence interval)
rabbit liver cytosol = test: Sulfonation of 7-hydroxycoumarin derivatives by rabbit liver cytosol; conditions: rabbit liver cytosol; value (95 % confidence interval)
dog liver cytosol = test: Sulfonation of 7-hydroxycoumarin derivatives by dog liver cytosol; conditions: dog liver cytosol; for intrinsic clearance (Vmax/Km): rank among species; for Vmax: value (95 % confidence interval)
sheep liver cytosol = test: Sulfonation of 7-hydroxycoumarin derivatives by sheep liver cytosol; conditions: sheep liver cytosol; value (95 % confidence interval)
in vitro [2] = conditions: female, pig, pH 7.4
in vitro [3] = conditions: DBA/2N/Kuo, mouse, pH 7.4
in vitro [4] = conditions: female, Dutch belted, rabbit, pH 7.4
in vitro [5] = conditions: male, Wistar, rat, pH 7.4
in vitro [6] = conditions: both, Beagle, dog, pH 7.4
mouse liver cytosol = test: Sulfonation of 7-hydroxycoumarin derivatives by mouse liver cytosol; conditions: for sulfonation rate: 10 μM substrate; for Vmax: mouse liver cytosol, value (95 % confidence interval)
human liver cytosol = test: Sulfonation of 7-hydroxycoumarin derivatives by human liver cytosol; conditions: human liver cytosol; value (95 % confidence interval)
in vitro [7] = conditions: male, human, pH 7.4

| Km (in vitro [1]) [µM] | intrinsic clearance (Vmax/Km) (dog liver cytosol) | Km (in vitro [2]) [µM] | Km (in vitro [3]) [µM] | Km (in vitro [4]) [µM] | Km (in vitro [5]) [µM] | Km (in vitro [6]) [µM] | sulfonation rate (mouse liver cytosol; female mouse liver cytosol) | sulfonation rate (mouse liver cytosol; male mouse liver cytosol) | Km (in vitro [7]) [µM] | SMILES | Vmax (rat liver cytosol) | Vmax (pig liver cytosol) | Vmax (rabbit liver cytosol) | Vmax (dog liver cytosol) | Vmax (sheep liver cytosol) | Vmax (mouse liver cytosol) | Vmax (human liver cytosol) |
| --- | --- | --- | --- | --- | --- | --- | --- | --- | --- | --- | --- | --- | --- | --- | --- | --- | --- |
| 0.46 | highest | 6.4 | 0.11 | 0.65 | 1.1 | 0.62 | Slow | Slow | 24 | Cc1c(C)c2ccc(O)cc2oc1=O [compound 4, 3,4-dimethyl-7-hydroxycoumarin] | 380 (140–620) nmol/(min * g protein) | 67 (18–120) nmol/(min * g protein) | 13 (0–28) nmol/(min * g protein) | 330 (250–420) nmol/(min * g protein) | 300 (230–370) nmol/(min * g protein) | 17 (14–20) nmol/(min * g protein) | 210 (0–1300) nmol/(min * g protein) |
| 9.8 | highest | 1.3 | 1.2 | 3.4 | 0.57 | 0.22 | – | – | 0.11 | COc1ccc(-c2cc3ccc(O)cc3oc2=O)cc1 [compound 11, 3-(4-methoxyphenyl)-7-hydroxycoumarin] | 210 (190–260) nmol/(min * g protein) | 5.5 (3.3–7.8) nmol/(min * g protein) | 190 (100–260) nmol/(min * g protein) | 300 (150–710) nmol/(min * g protein) | 410 (190–620) nmol/(min * g protein) | 100 (84–150) nmol/(min * g protein) | 18 (12–23) nmol/(min * g protein) |
